Assay type in all cases: cell-based
Assay [1] has as its system Enterococcus faecalis ATCC 19433. The assay is described as follows: Minimum inhibitory concentration (NCCLS dilution method). The note with it: Enterococcus faecalis ATCC 19433, Gram positive; triplicate, identical values. As to the method: (§1) Bacterial Strains and Culture Conditions. Paenibacillus amylolyticus C27, C25, C26, C28, and C30 were isolated from the hindgut extract of a Tipula abdominalis larva as described in Cook et al. (2007, Appl. Environ. Microbiol., 73:5683-5686), and grown aerobically at 28° C. on tryptic soy agar (TSA) and in tryptic soy both (TSB) or Davis minimal media broth (MM) (Atlas, 1993, Handbook of Microbiological Media, Boca Raton, Fla., CRC Press, Inc.). Escherichia coli ATCC 11303 was grown aerobically at 37° C. on Luria-Bertani agar or in broth. Enterococcus faecalis ATCC 19433, Pseudomonas aeruginosa ATCC 27853, Salmonella typhimurium ATCC 29629, Shigella fexneri ATCC 9199, Bacillus subtilis ATCC 6633, Staphylococcus aureus ATCC 6538, and Streptococcus pyogenes ATCC 19615 were grown aerobically at 37° C. on TSA.
(§2) Minimum inhibitory concentrations. Both P. amylolyticus C27 peaks with antibacterial activity from HPLC purification of 500 mL minimal media culture were combined. For analysis of polymyxin B (Sigma-Aldrich, St. Louis, Mo.), polymyxin E (Sigma-Aldrich, St. Louis, Mo.), and the P. amylolyticus C27 antibacterials, MIC determinations were performed according to the National Committee for Clinical Laboratory Standards (NCCLS) (Table 2) (NCCLS, 2003, Methods for dilution antimicrobial susceptibility tests for bacteria that grow aerobically; approved standard—sixth edition. NCCLS document M7-A6. Wayne, Pa., National Committee for Clinical Laboratory Standards).

Assay [2] deals with Escherichia coli ATCC 11303. Described as above. Conditions: Escherichia coli ATCC 11303, Gram negative; triplicate, identical values. As to the method: as §1, §2
Assay [3] deals with Pseudomonas aeruginosa ATCC 27853. Described as above. The note with it: Pseudomonas aeruginosa ATCC 27853, Gram negative; triplicate, identical values. How it is done: as §1, §2
The subject of assay [4] is Salmonella typhimurium ATCC 29629. The assay is described as above. Conditions: Salmonella typhimurium ATCC 29629 (first line, r15), Gram negative; triplicate, identical values. As to the method:
as §1, §2

Assay [5] relates to Staphylococcus aureus ATCC 6538. Described as above. Conditions: Staphylococcus aureus ATCC 6538, Gram positive; triplicate, identical values. As to the method: as §1, §2
Assay [6] relates to Streptococcus pyogenes ATCC 19615. The description is as above. Conditions: Streptococcus pyogenes ATCC 19615, Gram positive; triplicate, identical values. As to the method:
as §1, §2

For assay [7], the system named is Salmonella typhimurium ATCC 29629. The assay is described as follows: Minimum inhibitory concentration (NCCLS dilution method), Salmonella typhimurium [sic]. The note with it: Salmonella typhimurium ATCC 29629 (second line, r16), Gram negative; triplicate, identical values. As to the method: as §1
Minimum inhibitory concentrations. Both P. amylolyticus C27 peaks with antibacterial activity from HPLC purification of 500 mL minimal media culture were combined. […]

For polymyxin B, the Minimum inhibitory concentration in assay [1] was >128 µg/mL; in assay [2], 2 µg/mL; in assay [3], 4 µg/mL; in assay [4] it was 4 µg/mL; in assay [5], 32 µg/mL; in assay [6] it was 32 µg/mL. In assay [7], this substance returned a Minimum inhibitory concentration of 4 µg/mL.
As to polymyxin E, the Minimum inhibitory concentration was >128 µg/mL in assay [1]; 2 µg/mL in assay [2]; 4 µg/mL in assay [3]; 1 µg/mL in assay [4]; 128 µg/mL in assay [5]; >128 µg/mL in assay [6]. Moreover, in assay [7], the Minimum inhibitory concentration was determined as 2 µg/mL.

The values above are taken from patent US7935503B2, “Methods for producing and using polymyxins” (University of Georgia Research Foundation, Inc., priority 2007, dated 2011).
